Source: patent US9868705B2, “Tetra-aryl cyclobutane inhibitors of androgen receptor action for the treatment of hormone refractory cancer” (The Board of Trustees of the University of Illinois, priority 2013, dated 2018)
Changes are numbered by the printed parent chain.

How the values were obtained:
androgen receptor = experiment: Whole-cell competition binding assay using 3H-R1881; details: whole cells; mutant AR and WT-AR
wild type AR = target: T1, wild type AR (Homo sapiens, UniProt P10275); experiment: MMTV-luciferase transcription assay in CV-1 cells, wild type AR; assay type: cell-based; details: wild type AR; for MMTV transcription assay in CV-1 cells WT (IC50 / inhibition): values given as powers of ten without unit, or in words
T1 construct: expressed in transfected cells; host or cells: CV-1
T1 sequence (P10275 1-920): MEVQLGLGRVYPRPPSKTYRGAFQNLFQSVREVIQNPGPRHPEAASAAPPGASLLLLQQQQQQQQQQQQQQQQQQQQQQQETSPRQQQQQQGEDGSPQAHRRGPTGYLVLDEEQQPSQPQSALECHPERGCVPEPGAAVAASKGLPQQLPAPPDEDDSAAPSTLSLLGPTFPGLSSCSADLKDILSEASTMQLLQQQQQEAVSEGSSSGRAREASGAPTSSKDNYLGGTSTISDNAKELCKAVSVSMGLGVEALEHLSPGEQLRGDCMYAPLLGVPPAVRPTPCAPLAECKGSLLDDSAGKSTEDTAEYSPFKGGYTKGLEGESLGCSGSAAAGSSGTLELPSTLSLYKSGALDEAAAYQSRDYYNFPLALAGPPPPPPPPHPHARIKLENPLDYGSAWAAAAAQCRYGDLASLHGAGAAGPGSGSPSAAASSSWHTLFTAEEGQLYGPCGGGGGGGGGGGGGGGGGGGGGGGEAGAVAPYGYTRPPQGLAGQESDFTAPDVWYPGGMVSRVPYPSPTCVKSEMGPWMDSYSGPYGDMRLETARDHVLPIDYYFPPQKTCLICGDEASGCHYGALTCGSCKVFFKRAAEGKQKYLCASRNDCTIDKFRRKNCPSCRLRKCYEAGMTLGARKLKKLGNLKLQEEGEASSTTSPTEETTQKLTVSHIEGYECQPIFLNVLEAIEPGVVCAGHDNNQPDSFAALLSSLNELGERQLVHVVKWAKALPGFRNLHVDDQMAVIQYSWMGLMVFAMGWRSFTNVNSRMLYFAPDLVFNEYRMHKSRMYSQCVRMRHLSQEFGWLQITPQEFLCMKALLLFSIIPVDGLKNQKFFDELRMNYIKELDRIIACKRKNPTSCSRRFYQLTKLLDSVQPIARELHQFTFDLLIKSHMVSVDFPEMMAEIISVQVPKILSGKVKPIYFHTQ
Excerpt: (§1) These compounds were screened using an AR-responsive MMTV transcription assay in CV-1 cells, utilizing both wild type and T877A (LNCaP) AR. […]

T877A (LNCaP) AR = target: T2, T877A (LNCaP) AR (Homo sapiens, UniProt P10275, T878A); experiment: MMTV-luciferase transcription assay in CV-1 cells, T877A AR; assay type: cell-based; details: for AR antagonism, potency in words (structure-activity discussion): MMTV transcription assay in CV-1 cells, compared with 1; for IC50 / MMTV transcription assay in CV-1 cells T877A (IC50 / inhibition): T877A AR; for IC50: values given in μM, read-out: MMTV transcription assay in CV-1 cells T877A (IC50); for MMTV transcription assay in CV-1 cells T877A (IC50 / inhibition): values given as powers of ten without unit, or in words
T2 construct: expressed in transfected cells; host or cells: CV-1
T2 sequence (P10275 1-920 T878A): T1 sequence (P10275 1-920) with T878A
Excerpt: as §1

AR = target: T3, AR (Homo sapiens, UniProt P10275); experiment: AR relative binding affinity (RBA)
T3 sequence (P10275 1-920): T1 sequence (P10275 1-920)

SMILES | AR antagonism, potency in words (structure-activity discussion) (T877A (LNCaP) AR) | MMTV transcription assay in CV-1 cells WT (IC50 / inhibition) (wild type AR) | MMTV transcription assay in CV-1 cells T877A (IC50 / inhibition) (T877A (LNCaP) AR) | also measured
CC(C)CNc1cc([C@H]2[C@@H](c3ccccc3)[C@H](c3cc(NCC(C)C)nc(NCC(C)C)n3)[C@@H]2c2ccccc2)nc(NCc2cccc3ccccc23)n1 [CB-6] |  |  |  | competition with 3H-R1881 for binding to AR (androgen receptor): compete with 3H-R1881
CSc1cc([C@H]2[C@H](c3ccccc3)[C@@H](c3cc(SC)nc(SC)n3)[C@H]2c2ccccc2)nc(SC)n1 [CB-35] |  |  |  | AR RBA (AR): 0.027%
c1ccc([C@H]2[C@H](c3cnccn3)[C@H](c3ccccc3)[C@@H]2c2cnccn2)cc1 [DPM-11/20] |  | No inhibition No inhibition | Mild inhibition at~10^−5 | 
COc1cc([C@H]2[C@H](c3ccccc3)[C@@H](c3cc(OC)nc(OC)n3)[C@H]2c2ccccc2)nc(OC)n1 [CB-31] |  |  |  | AR RBA (AR): 0.046%
O=c1cc([C@H]2[C@H](c3ccccc3)[C@@H](c3cc(=O)[nH]c(=O)[nH]3)[C@H]2c2ccccc2)[nH]c(=O)[nH]1 [CB-48] |  |  |  | AR RBA (AR): 0.023%
CCc1cc([C@H]2[C@H](c3ccccc3)[C@H](c3cc(CC)nc(CC)n3)[C@H]2c2ccccc2)nc(CC)n1 [CB-50] |  |  |  | AR RBA (AR): 0.029%
CCCNc1cc([C@H]2[C@H](c3ccccc3)[C@@H](c3cc(NCCC)nc(NCCC)n3)[C@H]2c2ccccc2)nc(NCCC)n1 [CB-1] |  |  |  | competition with 3H-R1881 for binding to AR (androgen receptor): compete with 3H-R1881
COc1cc([C@H]2[C@@H](c3ccccc3)[C@H](c3cc(=O)[nH]c(=O)[nH]3)[C@@H]2c2ccccc2)nc(OC)n1 [CB-45] |  |  |  | AR RBA (AR): 0.087%
COc1nccc([C@H]2[C@H](c3ccccc3)[C@@H](c3ccnc(OC)n3)[C@H]2c2ccccc2)n1 [DMP-6] |  | No inhibition No inhibition | No inhibition No inhibition | 
COc1cc([C@H]2[C@@H](c3ccccc3)[C@@H](c3cc(=O)[nH]c(=O)[nH]3)[C@@H]2c2ccccc2)nc(OC)n1 [CB-46] |  |  |  | AR RBA (AR): 0.065%
COc1cc([C@H]2[C@H](c3ccsc3)[C@H](c3cc(OC)nc(OC)n3)[C@H]2c2ccsc2)nc(OC)n1 [DPM-8] | retained parent compound potency | Incomplete inhibition at 10^−5 Incomplete inhibition at 10^−5 |  | 
c1ccc([C@H]2[C@H](c3ccccn3)[C@H](c3ccccc3)[C@H]2c2ccccn2)cc1 [DMP-13] |  | No inhibition No inhibition |  | 
Clc1cc([C@H]2[C@H](c3cccs3)[C@H](c3cc(Cl)nc(Cl)n3)[C@H]2c2cccs2)nc(Cl)n1 [DMP-28] | retained parent compound potency | Incomplete inhibition at 10^−5 Incomplete inhibition at 10^−5 |  | IC50 (T877A (LNCaP) AR): 2.6 µM
CSc1cc([C@H]2[C@H](c3ccccc3)[C@H](c3cc(SC)nc(SC)n3)[C@H]2c2ccccc2)nc(SC)n1 [CB-34] |  |  |  | AR RBA (AR): 0.002%
COc1cc([C@H]2[C@H](c3ccc(Br)cc3)[C@@H](c3cc(OC)nc(OC)n3)[C@H]2c2ccc(Br)cc2)nc(OC)n1 [DMP-10] | inactive | No inhibition | No inhibition | 
Clc1cc([C@@H]2[C@H](c3cc(Cl)nc(Cl)n3)[C@@H](c3cccs3)[C@H]2c2cccs2)nc(Cl)n1 [DMP-29] | retained parent compound potency | Incomplete inhibition at 10^−5 Incomplete inhibition at 10^−5 | Incomplete inhibition at 10^−5 | 

Continued, in another order:

AR antagonism, potency in words (structure-activity discussion) (T877A (LNCaP) AR) | MMTV transcription assay in CV-1 cells WT (IC50 / inhibition) (wild type AR) | MMTV transcription assay in CV-1 cells T877A (IC50 / inhibition) (T877A (LNCaP) AR) | SMILES | also measured
comparable potency to 1 |  |  | Cc1cc([C@H]2[C@H](c3ccccc3)[C@H](c3cc(C)nc(Cl)n3)[C@H]2c2ccccc2)nc(Cl)n1 [DPM-30] | IC50 (wild type AR; values given in μM, read-out: MMTV transcription assay in CV-1 cells WT (IC50)): 17 µM; IC50 (T877A (LNCaP) AR): 2.89 µM
 | No inhibition No inhibition | No inhibition No inhibition | COc1nccc([C@H]2[C@H](c3ccccc3)[C@H](c3ccnc(OC)n3)[C@H]2c2ccccc2)n1 [DPM-5] | 
decreased activity | No inhibition | Slight inhibition at 10^−5 | COc1cncc([C@@H]2[C@@H](c3ccccc3)[C@@H](c3ccccc3)[C@@H]2c2cncc(OC)n2)n1 [DPM-16] | 
 | No inhibition No inhibition | No inhibition | c1ccc([C@@H]2[C@H](c3ccccc3)[C@@H](c3cnccn3)[C@H]2c2cnccn2)cc1 [DPM-12] | 
decreased potency | Incomplete inhibition at 10^−5 |  | Clc1cc([C@H]2[C@H](c3ccccc3)[C@H](c3cc(Cl)ncn3)[C@H]2c2ccccc2)ncn1 [DPM-26] | IC50 (T877A (LNCaP) AR): 9 µM
decreased activity | No inhibition |  | COc1cncc([C@H]2[C@H](c3ccccc3)[C@H](c3cncc(OC)n3)[C@H]2c2ccccc2)n1 [DPM-18] | 
decreased activity | No inhibition |  | COc1cncc([C@@H]2[C@@H](c3ccccc3)[C@@H](c3ccccc3)[C@@H]2c2cncc(OC)n2)n1 [DPM-15] | 
 | No inhibition No inhibition | No inhibition | c1ccc([C@@H]2[C@H](c3ccccc3)[C@@H](c3ccccn3)[C@H]2c2ccccn2)cc1 [DPM-14] | 
inactive | No inhibition | No inhibition | Clc1cc([C@H]2[C@H](c3ccc(-c4ccccc4)cc3)[C@H](c3cc(Cl)nc(Cl)n3)[C@H]2c2ccc(-c3ccccc3)cc2)nc(Cl)n1 [DPM-27] | 
decreased activity |  |  | COc1cncc([C@H]2[C@H](c3ccccc3)[C@@H](c3cncc(OC)n3)[C@H]2c2ccccc2)n1 [DPM-17] | 
